Measurements as given in patent publication US20230414776A1, “Small Molecule-Nanobody Conjugate Inducers of Proximity (SNACIP) and Preparation Methods and Use thereof” (Harbin Institute of Technology, priority 2022, published 2023).

Legend:
Type in all cases: cell-based
[1] = system: EGFP in HeLa cells; experiment: Localization of EGFP to subcellular structures; conditions: TMP 10 μM, 10 min
Experimental: Treatment of living cells with an SNACIP inducer of dimerization for microscopic imaging: Unless otherwise specified, first a DMEM complete medium of the cells is replaced with a phenol red-free imaging medium of the SNACIP inducer of dimerization of the corresponding concentration, and then imaging is performed after incubation for a given period of time. For cRGT, the concentration represents an effective ratio of cRGT; and near-complete dimerization regulation may be achieved without washing off excess cRGT before imaging.
Many cellular processes are regulated by dynamic distribution of proteins in the cell.

[2] = system: mEYFP; experiment: Regulation of GFP mutant mEYFP localization; conditions: TMP 10 μM, 10 min
Text: Yellow fluorescent protein mEYFP and turquoise fluorescent protein mTurquoise2 are close mutants of the GFP. […] This is an interesting phenomenon, but can also be reasonably explained: Asn146 in GFP, a residue that has a key hydrogen-bonding interaction with the Asn99 residue of GBP, is retained in EGFP and mEYFP, but is mutated to Ile146 in mTurquoise2. […] Therefore, cRGT is an all-rounder, can regulate the proteins of interest to which EGFP, mEYFP and eDHFR are fused, and also has good orthogonality to other fluorescent proteins.

[3] = system: Rac1; experiment: Rac1 localization to plasma membrane and lamellipodia formation by cRGT
Text: A constitutively active mutant EGFP-NES-Rac1Q61LΔCAAX (G-NES-Rac1 for short, green, cytoplasmic distribution) without the plasma membrane targeting ability and lacking the CAAX-box sequence and mCherry-eDHFR-CAAX (red, plasma membrane localized), being co-expressed in living HeLa cells; treatment of the HeLa cells with cRGT will localize the Rac1 mutant to the functional location of the plasma membrane, which in turn induces a signaling cascade process during lamellipodia formation. Confocal micrographs of representative living HeLa cells co-expressing G-NES-Rac1 and mCherry-eDHFR-CAAX, before treatment with cRGT (Pre), after treatment with 24 μM cRGT, and after addition of TMP at a final concentration of 10 μM. Statistical analysis of colocalization between the EGFP channel and the mCherry channel by PCC were shown. Statistical analysis of cell areas before treatment with cRGT (Pre), after treatment with 24 μM cRGT, and after treatment with TMP at a final concentration of 10 μM was also shown. […] Curve comparison of streak analysis of cells after dimerization induced by cRGT and TMP-Cl. […] Abbreviations in the pictures: mCherry is abbreviated as mChe or R; EGFP is abbreviated as G; mTurquoise2 is abbreviated as mTurq or C; eDHFR is abbreviated as ED; HaloTag is abbreviated as HT. All scales: 10 μm. […]

[4] = system: eDHFR and HaloTag; experiment: TMP-Cl induced targeting of Rac1 to plasma membrane (eDHFR/HaloTag); conditions: TMP-Cl 10 μM, 1 h, excess washed off 30 min, HeLa

SMILES | reversal of Golgi localization [1] | reversal of mitochondrial localization [1] | reversal of mEYFP localization [2] | reversal of Rac1 localization and morphology change ([3]; 10 μM TMP) | average area of cells after TMP addition ([3]; 10 μM TMP after cRGT) | PCC of colocalization [4]
COc1cc(Cc2cnc(N)nc2N)cc(OC)c1OC [TMP, trimethoprim] | also rapidly reversible | rapidly reversible | rapidly reversible | completely reversed | decreased significantly | –
COc1cc(Cc2cnc(N)nc2N)cc(OC)c1OCCOCCOCCOCCOCCOCCCCCCCl [TMP-Cl] | – | – | – | – | – | around 0.7
